The values below come from ChEMBL document CHEMBL4049442, “Design, Synthesis, and Biological Evaluation of Dimorpholine Substituted Thienopyrimidines as Potential Class I PI3K/mTOR Dual Inhibitors” (J Med Chem, 2017).

Activity calls are given as the source filed them. The calls are words filed in the database; no cut-off is given here. Some results are limits rather than exact numbers.

In data set [1] the test system is U-87 MG. In words: Antitumor activity against human U87MG cells xenografted in BALB/c nude mouse assessed as tumor growth inhibition administered po for 18 days measured every 3 days during compound dosing. Format: functional, organism-based. The settings on record: U-87MG ATCC.
Data set [2] addresses PI3-kinase p110-alpha/p85-alpha (Homo sapiens, UniProt P42336). In words: Inhibition of full length recombinant human N-terminal His-tagged PI3K p110alpha/p85alpha expressed in baculovirus using PIP2 as substrate after 1 hr by kinase-glo luminescence assay.
The target in data set [3] is Serine/threonine-protein kinase mTOR (Homo sapiens, UniProt P42345). Nature of the data set: Inhibition of recombinant human N-terminal FLAG-tagged mTOR (1362 to end residues) expressed in baculovirus infected Sf21 insect cells assessed as reduction in ULight-4E-BP1 phosphorylation after 30 mins by lance ultra assay.
In data set [4] the target is Phosphatidylinositol 4,5-bisphosphate 3-kinase catalytic subunit gamma isoform (Homo sapiens, UniProt P48736). In words: Inhibition of recombinant human His-tagged PI3K p110gamma expressed in baculovirus using PIP2 as substrate after 1 hr by kinase-glo luminescence assay. On the technique in general: Kinase-Glo reads ATP consumption through a luciferase reaction.
Chain of Phosphatidylinositol 4,5-bisphosphate 3-kinase catalytic subunit gamma isoform (P48736 whole entry, canonical isoform): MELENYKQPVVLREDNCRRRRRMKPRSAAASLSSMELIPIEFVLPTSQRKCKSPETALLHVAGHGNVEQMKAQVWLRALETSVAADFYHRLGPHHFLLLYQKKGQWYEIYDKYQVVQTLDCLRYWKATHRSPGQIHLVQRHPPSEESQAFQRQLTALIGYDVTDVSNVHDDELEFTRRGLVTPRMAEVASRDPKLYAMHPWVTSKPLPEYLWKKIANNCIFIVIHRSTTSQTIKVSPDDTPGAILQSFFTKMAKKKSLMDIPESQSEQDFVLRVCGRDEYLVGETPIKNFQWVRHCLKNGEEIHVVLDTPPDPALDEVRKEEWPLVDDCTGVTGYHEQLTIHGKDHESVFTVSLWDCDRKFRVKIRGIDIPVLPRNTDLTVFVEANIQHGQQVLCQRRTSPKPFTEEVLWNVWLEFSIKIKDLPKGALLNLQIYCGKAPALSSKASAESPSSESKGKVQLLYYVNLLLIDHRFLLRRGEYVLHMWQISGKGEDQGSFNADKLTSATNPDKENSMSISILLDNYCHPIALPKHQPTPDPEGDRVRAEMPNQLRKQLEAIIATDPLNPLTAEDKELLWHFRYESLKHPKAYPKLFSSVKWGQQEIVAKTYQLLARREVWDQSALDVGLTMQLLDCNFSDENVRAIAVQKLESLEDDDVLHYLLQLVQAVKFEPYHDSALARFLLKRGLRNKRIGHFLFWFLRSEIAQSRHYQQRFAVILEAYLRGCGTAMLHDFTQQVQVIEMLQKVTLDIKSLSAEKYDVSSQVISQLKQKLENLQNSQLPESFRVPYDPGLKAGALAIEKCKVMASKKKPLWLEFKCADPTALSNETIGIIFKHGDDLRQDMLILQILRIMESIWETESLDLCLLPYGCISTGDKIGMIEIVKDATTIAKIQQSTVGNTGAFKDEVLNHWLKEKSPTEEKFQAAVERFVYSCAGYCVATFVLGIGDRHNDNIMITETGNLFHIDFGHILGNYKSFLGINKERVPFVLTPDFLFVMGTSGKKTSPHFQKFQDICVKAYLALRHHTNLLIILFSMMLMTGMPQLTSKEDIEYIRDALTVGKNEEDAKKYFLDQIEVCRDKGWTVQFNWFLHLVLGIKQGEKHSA
The species named for data set [5] is Homo sapiens. In words: Inhibition of PI3K in human SKOV3 cells assessed as reduction in Akt phosphorylation at S473 after 24 hrs by Western blot analysis. Format: cell-based.
The species entered for data set [6] is Homo sapiens. Nature of the data set: Inhibition of PI3K in human SKOV3 cells assessed as reduction in Akt phosphorylation at T308 after 24 hrs by Western blot analysis. The class given is cell-based.
For data set [7], the species on record is Homo sapiens. In words: Inhibition of PI3K in human SKOV3 cells assessed as reduction in S6 phosphorylation after 24 hrs by Western blot analysis. Format: cell-based. For orientation: A western blot detects proteins with antibodies after separation by electrophoresis.
For data set [8], the species on record is Homo sapiens. In words: Inhibition of PI3K in human U87MG cells assessed as reduction in Akt phosphorylation at S473 after 24 hrs by Western blot analysis. The class given is cell-based.
The species entered for data set [9] is Homo sapiens. In words: Inhibition of PI3K in human U87MG cells assessed as reduction in Akt phosphorylation at T308 after 24 hrs by Western blot analysis. The class given is cell-based.
The species named for data set [10] is Homo sapiens. In words: Inhibition of PI3K in human U87MG cells assessed as reduction in S6 phosphorylation after 24 hrs by Western blot analysis. Format: cell-based.
A short description of data set [11]: Clearance in Sprague-Dawley rat at 2 mg/kg, iv by LC-MS/MS analysis. The settings on record: in vivo. Format: ADME, organism-based.
Data set [12] is described as follows: Volume of distribution at steady state in Sprague-Dawley rat at 2 mg/kg, iv by LC-MS/MS analysis. The class given is ADME, organism-based. The settings on record: in vivo, read-out: Vdss.
Data set [13] can be described thus: Cmax in Sprague-Dawley rat at 10 mg/kg, po by LC-MS/MS analysis. The class given is ADME, organism-based. Further details: dose 10 mg/kg, route oral. The settings on record: in vivo.
Data set [14] in a line: AUC in Sprague-Dawley rat at 10 mg/kg, po by LC-MS/MS analysis. The settings on record: in vivo. The class given is ADME, organism-based.
Data set [15] is described as follows: Oral bioavailability in Sprague-Dawley rat at 10 mg/kg by LC-MS/MS analysis. Format: ADME, organism-based. The settings on record: in vivo.
Data set [16] has as its system SK-OV-3. Nature of the data set: Antitumor activity against human SKOV3 cells xenografted in BALB/c nude mouse assessed as tumor growth inhibition administered via po for 24 days measured every 3 days during compound dosing. The class given is functional, organism-based. (In general: A xenograft is tissue or cells of one species grown in another, often human tumour cells in immunodeficient mice.)

Data set [17] deals with SK-OV-3. Nature of the data set: Antitumor activity against human SKOV3 cells xenografted in BALB/c nude mouse assessed as tumor growth inhibition at 60 mg/kg/day, po for 24 days measured every 3 days during compound dosing relative to control. The settings on record: SK-OV-3, po, read-out: TGI. Format: functional.
Data set [18] relates to SK-OV-3. In words: Antitumor activity against human SKOV3 cells xenografted in BALB/c nude mouse assessed as tumor growth inhibition at 30 mg/kg/day, po for 24 days measured every 3 days during compound dosing relative to control. Format: functional.
Data set [19] has as its system SK-OV-3. In words: Antitumor activity against human SKOV3 cells xenografted in BALB/c nude mouse assessed as tumor growth inhibition at 15 mg/kg/day, po for 24 days measured every 3 days during compound dosing relative to control. The class given is functional. The settings on record: SK-OV-3, po, read-out: TGI.
Data set [20] relates to U-87 MG. Nature of the data set: Antitumor activity against human U87MG cells xenografted in BALB/c nude mouse assessed as tumor growth inhibition at 40 mg/kg/day, po for 18 days measured every 3 days during compound dosing relative to control. The settings on record: read-out: TGI. Format: functional, U-87MG ATCC.
Data set [21] deals with U-87 MG. Nature of the data set: Antitumor activity against human U87MG cells xenografted in BALB/c nude mouse assessed as tumor growth inhibition at 20 mg/kg/day, po for 18 days measured every 3 days during compound dosing relative to control. Format: functional, U-87MG ATCC.
In data set [22] the test system is Mus musculus. In words: Toxicity in BALB/c nude mouse xenografted with human SKOV3 cells assessed as body weight loss at 15 to 60 mg/kg/day, po for 24 days measured every 3 days during compound dosing. Format: organism-based. The settings on record: in vivo.
Data set [23] concerns Mus musculus. Nature of the data set: Toxicity in BALB/c nude mouse xenografted with human U87MG cells assessed as body weight loss at 20 to 40 mg/kg/day, po for 18 days measured every 3 days during compound dosing. The class given is organism-based. The settings on record: in vivo.
In data set [24] the test system is Mus musculus. Nature of the data set: In vivo inhibition of PI3K in BALB/c nude mouse xenografted with human SKOV3 cells assessed as reduction in Akt phosphorylation at S473 in tumors administered po for 24 days by immunohistochemical analysis. The class given is functional, organism-based.
Data set [25] deals with Mus musculus. In words: In vivo inhibition of PI3K in BALB/c nude mouse xenografted with human SKOV3 cells assessed as reduction in S6RP phosphorylation at Ser235/236 administered po for 24 days in tumors by immunohistochemical analysis. The class given is functional, organism-based.
Data set [26] relates to SK-OV-3. In words: Antitumor activity against human SKOV3 cells xenografted in BALB/c nude mouse assessed as decrease in cell proliferation administered po for 24 days by Ki67 staining based assay. Format: functional, organism-based.
Data set [27] concerns SK-OV-3. In words: Antitumor activity against human SKOV3 cells xenografted in BALB/c nude mouse assessed as TUNEL positive cells at 15 to 60 mg/kg/day, po for 24 days. The class given is functional, organism-based.
The subject of a further data set is PC-3. Nature of the data set: cells. The settings on record: Homo sapiens, PC-3, 72 h.
The test system of another data set is LNCaP. Nature of the data set: cells. The settings on record: Homo sapiens, 72 h.
Data set [28] relates to U-87 MG. In words: cells. The settings on record: Homo sapiens, 72 h.
In data set [29] the test system is SK-OV-3. Nature of the data set: cells. The settings on record: Homo sapiens, SK-OV-3, 72 h.
Data set [30] can be described thus: Half-life in Sprague-Dawley rat at 2 mg/kg, iv by LC-MS/MS analysis. The settings on record: in vivo.
In data set [31] the target is Phosphatidylinositol 4,5-bisphosphate 3-kinase catalytic subunit beta isoform (Homo sapiens, UniProt P42338). In words: Inhibition of PI3Kbeta (unknown origin) using PIP2 as substrate after 1 hr by ADP-Glo luminescence assay.
Chain of Phosphatidylinositol 4,5-bisphosphate 3-kinase catalytic subunit beta isoform (P42338 whole entry, canonical isoform): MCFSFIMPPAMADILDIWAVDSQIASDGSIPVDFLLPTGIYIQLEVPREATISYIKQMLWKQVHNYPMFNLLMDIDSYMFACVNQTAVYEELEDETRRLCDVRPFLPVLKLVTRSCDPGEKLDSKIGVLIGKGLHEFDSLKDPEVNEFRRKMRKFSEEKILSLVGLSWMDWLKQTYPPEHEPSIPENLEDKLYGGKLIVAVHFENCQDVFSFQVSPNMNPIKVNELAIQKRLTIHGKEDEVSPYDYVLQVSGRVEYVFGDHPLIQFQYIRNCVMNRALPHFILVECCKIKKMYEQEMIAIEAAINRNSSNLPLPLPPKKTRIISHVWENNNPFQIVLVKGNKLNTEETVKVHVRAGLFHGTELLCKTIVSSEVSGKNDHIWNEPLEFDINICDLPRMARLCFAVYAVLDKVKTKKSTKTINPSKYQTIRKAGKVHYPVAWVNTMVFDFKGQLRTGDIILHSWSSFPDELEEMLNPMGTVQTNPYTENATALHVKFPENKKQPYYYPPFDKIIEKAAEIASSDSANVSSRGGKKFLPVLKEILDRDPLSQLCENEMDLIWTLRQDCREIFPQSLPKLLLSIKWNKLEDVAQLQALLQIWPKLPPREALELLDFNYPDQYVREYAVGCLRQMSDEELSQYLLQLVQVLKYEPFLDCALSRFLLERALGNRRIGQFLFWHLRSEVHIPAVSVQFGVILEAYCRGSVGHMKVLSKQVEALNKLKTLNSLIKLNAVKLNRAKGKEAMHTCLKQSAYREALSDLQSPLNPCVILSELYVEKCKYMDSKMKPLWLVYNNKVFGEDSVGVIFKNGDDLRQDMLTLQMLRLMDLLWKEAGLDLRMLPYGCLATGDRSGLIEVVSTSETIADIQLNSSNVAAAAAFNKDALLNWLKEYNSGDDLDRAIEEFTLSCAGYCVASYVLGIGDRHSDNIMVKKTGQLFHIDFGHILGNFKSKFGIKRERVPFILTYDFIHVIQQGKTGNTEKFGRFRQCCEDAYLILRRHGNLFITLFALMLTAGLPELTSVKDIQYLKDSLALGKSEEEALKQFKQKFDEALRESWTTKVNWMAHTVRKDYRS
Data set [32] addresses PI3-kinase p110-delta/p85-alpha (Homo sapiens, UniProt O00329). In words: Inhibition of recombinant full length human N-terminal His6-tagged PI3K p110delta/p85alpha expressed in baculovirus infected Sf21 cells using PIP2 as substrate after 2 hrs by kinase-glo luminescence assay.

Chain of PI3-kinase p110-alpha/p85-alpha (P27986 whole entry): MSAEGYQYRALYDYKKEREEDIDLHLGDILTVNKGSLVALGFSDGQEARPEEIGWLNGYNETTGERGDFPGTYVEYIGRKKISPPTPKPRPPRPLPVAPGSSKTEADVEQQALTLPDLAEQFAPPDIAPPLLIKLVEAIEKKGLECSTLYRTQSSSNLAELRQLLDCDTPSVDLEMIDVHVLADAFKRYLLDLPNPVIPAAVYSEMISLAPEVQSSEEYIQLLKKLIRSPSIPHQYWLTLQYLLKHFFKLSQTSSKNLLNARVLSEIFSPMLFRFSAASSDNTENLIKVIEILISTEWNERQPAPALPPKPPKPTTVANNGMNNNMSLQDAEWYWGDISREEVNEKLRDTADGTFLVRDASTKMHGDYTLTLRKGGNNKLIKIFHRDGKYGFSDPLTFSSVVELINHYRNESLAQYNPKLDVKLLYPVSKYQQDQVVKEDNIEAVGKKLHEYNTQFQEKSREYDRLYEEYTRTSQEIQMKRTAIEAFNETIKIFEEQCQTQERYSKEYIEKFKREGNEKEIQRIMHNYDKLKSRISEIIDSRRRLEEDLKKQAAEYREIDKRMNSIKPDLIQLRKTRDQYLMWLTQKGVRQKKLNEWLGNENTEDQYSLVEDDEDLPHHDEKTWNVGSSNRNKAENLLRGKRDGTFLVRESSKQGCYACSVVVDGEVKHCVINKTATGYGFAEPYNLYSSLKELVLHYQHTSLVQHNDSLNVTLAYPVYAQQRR
Chain of PI3-kinase p110-alpha/p85-alpha (P42336 whole entry): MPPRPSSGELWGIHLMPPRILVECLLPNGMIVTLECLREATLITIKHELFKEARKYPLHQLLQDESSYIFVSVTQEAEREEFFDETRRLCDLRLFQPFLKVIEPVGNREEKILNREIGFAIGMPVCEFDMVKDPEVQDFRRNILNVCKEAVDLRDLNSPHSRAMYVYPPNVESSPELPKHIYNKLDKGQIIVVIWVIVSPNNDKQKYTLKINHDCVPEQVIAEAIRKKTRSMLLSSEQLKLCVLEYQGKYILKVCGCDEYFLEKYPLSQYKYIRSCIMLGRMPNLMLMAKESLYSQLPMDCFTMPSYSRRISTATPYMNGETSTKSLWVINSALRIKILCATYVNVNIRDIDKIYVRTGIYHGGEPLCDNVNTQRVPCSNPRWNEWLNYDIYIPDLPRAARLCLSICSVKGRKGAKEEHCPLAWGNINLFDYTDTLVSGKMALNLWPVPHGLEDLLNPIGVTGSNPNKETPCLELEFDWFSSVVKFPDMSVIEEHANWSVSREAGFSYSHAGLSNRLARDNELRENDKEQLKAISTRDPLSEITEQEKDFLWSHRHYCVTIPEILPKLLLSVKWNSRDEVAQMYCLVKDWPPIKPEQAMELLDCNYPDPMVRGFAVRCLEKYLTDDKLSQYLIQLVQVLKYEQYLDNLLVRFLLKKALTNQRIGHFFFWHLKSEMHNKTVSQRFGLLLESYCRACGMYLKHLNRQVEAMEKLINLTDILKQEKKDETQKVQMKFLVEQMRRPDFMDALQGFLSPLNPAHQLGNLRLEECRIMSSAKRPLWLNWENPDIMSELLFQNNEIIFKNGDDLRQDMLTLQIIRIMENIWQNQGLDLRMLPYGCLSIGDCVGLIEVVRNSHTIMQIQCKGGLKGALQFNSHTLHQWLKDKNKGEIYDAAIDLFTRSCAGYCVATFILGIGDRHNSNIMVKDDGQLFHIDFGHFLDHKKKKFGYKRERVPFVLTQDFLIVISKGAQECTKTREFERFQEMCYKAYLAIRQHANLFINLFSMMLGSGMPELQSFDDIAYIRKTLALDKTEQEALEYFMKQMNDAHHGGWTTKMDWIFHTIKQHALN
Chain of PI3-kinase p110-delta/p85-alpha (P27986 whole entry): as the sequence (P27986 whole entry) above
Chain of PI3-kinase p110-delta/p85-alpha (O00329 whole entry): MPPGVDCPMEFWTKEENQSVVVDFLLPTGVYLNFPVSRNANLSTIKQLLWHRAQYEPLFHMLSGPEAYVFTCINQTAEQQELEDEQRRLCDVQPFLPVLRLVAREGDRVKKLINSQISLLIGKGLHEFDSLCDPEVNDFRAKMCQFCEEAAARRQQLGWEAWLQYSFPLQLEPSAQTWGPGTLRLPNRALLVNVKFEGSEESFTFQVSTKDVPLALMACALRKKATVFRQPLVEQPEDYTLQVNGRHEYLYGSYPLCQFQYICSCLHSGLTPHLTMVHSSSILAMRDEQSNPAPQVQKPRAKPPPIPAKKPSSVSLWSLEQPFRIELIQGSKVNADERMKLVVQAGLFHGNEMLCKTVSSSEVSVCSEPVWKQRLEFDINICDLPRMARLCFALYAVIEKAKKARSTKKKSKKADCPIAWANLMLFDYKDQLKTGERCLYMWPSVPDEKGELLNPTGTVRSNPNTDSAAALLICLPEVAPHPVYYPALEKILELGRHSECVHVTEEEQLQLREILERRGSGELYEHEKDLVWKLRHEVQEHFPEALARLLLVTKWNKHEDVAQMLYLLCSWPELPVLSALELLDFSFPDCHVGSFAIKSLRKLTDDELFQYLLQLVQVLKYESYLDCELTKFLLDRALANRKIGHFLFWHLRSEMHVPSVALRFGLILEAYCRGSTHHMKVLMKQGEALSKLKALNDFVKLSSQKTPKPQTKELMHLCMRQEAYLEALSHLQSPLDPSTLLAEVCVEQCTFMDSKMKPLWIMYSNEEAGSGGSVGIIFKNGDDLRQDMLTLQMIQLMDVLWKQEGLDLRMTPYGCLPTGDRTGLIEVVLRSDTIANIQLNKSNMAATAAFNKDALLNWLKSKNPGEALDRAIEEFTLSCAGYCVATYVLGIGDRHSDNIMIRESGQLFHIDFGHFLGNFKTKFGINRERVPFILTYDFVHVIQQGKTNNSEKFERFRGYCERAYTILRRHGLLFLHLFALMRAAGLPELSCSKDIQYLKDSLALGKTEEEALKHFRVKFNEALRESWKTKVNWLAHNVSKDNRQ

Regarding `C[C@@H]1CN(c2nc(N3CCOCC3)c3sc(-c4ccn[nH]4)cc3n2)C[C@H](C)O1`, the TGI result in the data set with U-87 MG [1] and with SK-OV-3 [16] was “Dose-dependent effect” throughout. Further, the IC50 in [2] is 15 nM; in data set [3] it was 16 nM; in data set [4] it was 75 nM; in the data set with PC-3 it was 446 nM; in the data set with LNCaP, 210 nM; in the data set on U-87 MG [28], 0.43 µM. In addition, the IC50 with SK-OV-3 [29] worked out at 0.504 µM; in data set [31], 175 nM; in data set [32] it was 10 nM. Besides, the inhibition result in the data set listed under Homo sapiens [5], in the data set listed under Homo sapiens [6], in the data set listed under Homo sapiens [7], in the data set listed under Homo sapiens [8], in the data set listed under Homo sapiens [9] and in the data set filed under Homo sapiens [10] was “Dose-dependent effect” each time. For the same molecule, the inhibition result with Mus musculus [24] and in the data set on Mus musculus [25] was “Dose-dependent effect” in each case. Moreover, the clearance in data set [11] was determined as 29 mL/min/kg. Further, the Vd in data set [12] stood at 4.4 L/kg. This molecule also gave a Cmax in [13] of 1400 nM. In data set [14], this molecule gave an AUC of 5.2 µM·h. The molecule also gave a bioavailability in data set [15] of 41%. The inhibition in vivo at 60 mg/kg/day with SK-OV-3 [17] came to 89.6%. The inhibition in vivo at 30 mg/kg/day in the data set with SK-OV-3 [18] (SK-OV-3, po, read-out: TGI) stood at 75.9%. In addition, the inhibition in vivo at 15 mg/kg/day in the data set with SK-OV-3 [19] stood at 48.5%. Also, in the data set with U-87 MG [20], the inhibition in vivo at 40 mg/kg/day was determined as 81.2%. Further, in the data set on U-87 MG [21] (read-out: TGI), the inhibition in vivo at 20 mg/kg/day worked out at 69.2%. The Activity entry is “Non-Toxic” with Mus musculus [22], “Non-Toxic” in the data set with Mus musculus [23] and “Dose-dependent effect” in the data set on SK-OV-3 [26]. Further, in the data set with SK-OV-3 [27], the outcome was Active. In data set [30], this molecule gave a half-life of 90 min.
`C[C@@H]1CN(c2nc(N3CCOCC3)c3sc(-c4cnc(N)nc4)cc3n2)C[C@H](C)O1`: the IC50 is 24 nM in data set [2]; 424 nM in data set [3]; 35 nM in data set [4]; 3670 nM with PC-3; 4530 nM in the data set on LNCaP; more than 25 µM in the data set on U-87 MG [28]. Also, the IC50 with SK-OV-3 [29] is 10 µM; in data set [31], 317 nM; in data set [32] it was 171 nM.
As to `C[C@@H]1CN(c2nc(N3CCOCC3)c3sc(-c4cccnc4)cc3n2)C[C@H](C)O1`, the IC50 in data set [2] is 281 nM; in data set [3], 612 nM; in the data set on PC-3, 12800 nM; in the data set with LNCaP, 3000 nM; in the data set with U-87 MG [28], more than 25 µM; in the data set on SK-OV-3 [29] it was 15.7 µM.
In the case of `CC(O)c1cc2nc(N3C[C@@H](C)O[C@@H](C)C3)nc(N3CCOCC3)c2s1` (stereo partly drawn), the IC50 in data set [2] was 122 nM; in [3] it was 632 nM; with PC-3 it was 1380 nM; in the data set with LNCaP, 2590 nM; with U-87 MG [28], 3.29 µM; in the data set with SK-OV-3 [29], 1.22 µM.
In the case of `C[C@@H]1CN(c2nc(N3CCOCC3)c3sc(CO)cc3n2)C[C@H](C)O1`, the IC50 came out at 216 nM in data set [2]; 463 nM in [3]; 1050 nM with PC-3; 1780 nM in the data set on LNCaP; 6.59 µM in the data set on U-87 MG [28]; 4.99 µM in the data set on SK-OV-3 [29].
As for `CS(=O)(=O)N1CCN(Cc2cc3nc(-c4cccc5[nH]ncc45)nc(N4CCOCC4)c3s2)CC1`, the TGI entry in the data set with SK-OV-3 [18] and with U-87 MG [21] (U-87MG ATCC) was “inactive” each time.

As a reminder, the IC50 is the point on the concentration scale where inhibition reaches its midpoint. Broadly, the clearance is a measure of how efficiently the substance is removed, as volume per time. Read a low clearance as a low capacity for elimination. As usually defined, the Cmax is the maximum level reached in the sampled fluid or tissue. For orientation: AUC means the area under the concentration-time curve, a measure of exposure. As a reminder, the bioavailability is the share of a dose that reaches the circulation, judged against a reference dose that is usually intravenous. Read a high bioavailability as much systemic uptake. In general, half-life refers to the time in which the quantity being followed falls by half. Lower therefore signals rapid decline.
